Data published in patent US20110184188A1, “Insecticidal Benzenedicarboxamide Derivative” (priority 2008, published 2011).

Test: logP(acid) by reverse phase (C18) chromatography at pH 2.3
Type: physicochemical
Settings: pH 2.3; reverse phase (C18) chromatography, pH2.3, 0.1% phosphoric acid / acetonitrile gradient 10-95%; read-out: logP (acid)

| SMILES | chromatographic logP |
| --- | --- |
| Cc1nc(Cn2nnc(C(F)(F)C(F)(F)C(F)(F)F)n2)ccc1[N+](=O)[O-] [SYNTHESIS EXAMPLE 86-1] | 3.78 |
| Cc1nc(Cn2nnc(C(F)(F)C(F)(F)C(F)(F)F)n2)ccc1N [SYNTHESIS EXAMPLE 86-2] | 2.3 |

Same assay, conditions: reverse phase (C18) chromatography at pH 2.3

| logP (acid) | Physical property logP (acid) | SMILES |
| --- | --- | --- |
|  | logP (acid) 4.13 | CSCC(C)NC(=O)c1c(Cl)cccc1C(=O)Nc1ccc(Cn2nc(C(F)(F)F)nc2SC(C)C)cc1C (centres unmarked) [14-39] |
|  | logP (acid) 3.33 | CSCC(C)NC(=O)c1c(Cl)cccc1C(=O)Nc1ccc(Cn2nc(C(F)(F)C(F)F)nc2C(F)(F)C(F)F)nc1C (centres unmarked) [14-31] |
|  | logP (acid) 4.91 | CCCCCSc1nc(C(F)(F)F)nn1Cc1ccc(NC(=O)c2cccc(Cl)c2C(=O)NC(C)CSC)c(C)c1 (centres unmarked) [14-40] |
|  | logP (acid) 2.59 | Cc1nc(Cn2nc(C(F)(F)C(F)(F)F)nc2C(F)(F)F)ccc1NC(=O)c1cccc(Cl)c1C(=O)NC(C)C[S+](C)[O-] (centres unmarked) [14-60] |

Further lines, the molecule ahead of its results:

| SMILES | logP (acid) | Physical property logP (acid) |
| --- | --- | --- |
| Cc1nc(Cn2nc(C(F)(F)F)cc2C(F)(F)F)ccc1NC(=O)c1c(Cl)ccc(Cl)c1C(=O)N[C@@H](C)CS(C)(=O)=O [11-6] | logP (acid) 3.05 |  |
| Cc1nc(Cn2nc(C(F)F)c(Cl)c2C(F)F)ccc1NC(=O)c1cccc(Cl)c1C(=O)NC(C)C[S+](C)[O-] (mixture of isomers) [13-58] | 2.13 |  |
| CSC[C@H](C)NC(=O)c1c(Br)cccc1C(=O)Nc1ccc(Cn2cc(C(F)(F)C(F)(F)F)c(C(F)(F)C(F)(F)F)n2)nc1C [13-134] | logP (acid) 4.35 |  |
| COc1ccc(Br)c(C(=O)Nc2ccc(Cn3nc(C(F)(F)C(F)(F)F)cc3C(F)(F)F)nc2C)c1C(=O)N[C@@H](C)C[S+](C)[O-] (some centres unmarked) [11-20] | logP (acid) 2.90 |  |
| Cc1cc(Cn2nc(C(F)(F)C(F)(F)F)nc2C(F)(F)F)ccc1NC(=O)c1cc(F)cc(Cl)c1C(=O)N[C@@H](C)C[S+](C)[O-] (some centres unmarked) [10-14] | logP (acid) 3.00 |  |
| COc1ccc(Br)c(C(=O)Nc2ccc(Cn3nc(C(F)(F)F)cc3C(F)(F)F)nc2C)c1C(=O)N[C@@H](C)C[S+](C)[O-] (some centres unmarked) [11-17] | logP (acid) 2.6 |  |
| Cc1cc(Cn2nc(C(F)(F)C(F)(F)F)nc2C(F)(F)F)ccc1NC(=O)c1c(Br)ccc(Cl)c1C(=O)N[C@@H](C)CS(C)(=O)=O [11-32] | logP (acid) 3.47 |  |
| CSC[C@H](C)NC(=O)c1c(I)cccc1C(=O)Nc1ccc(Cn2nc(C(F)F)c(Cl)c2C(F)F)nc1C [13-145] | logP (acid) 3.34 |  |
| Cc1nc(Cn2nc(C(F)(F)C(F)(F)F)cc2C(F)(F)F)ccc1NC(=O)c1cccc(Cl)c1C(=O)N[C@@H](C)C[S+](C)[O-] (some centres unmarked) [13-70] | 2.86 |  |
| Cc1nc(Cn2cc(C(F)(F)C(F)(F)F)c(C(F)(F)C(F)(F)F)n2)ccc1NC(=O)c1cccc(Br)c1C(=O)N[C@@H](C)C[S+](C)[O-] (some centres unmarked) [13-138] | logP (acid) 3.03 |  |
| CSC[C@H](C)NC(=O)c1c(Cl)cccc1C(=O)Nc1ccc(Cn2c(C(F)(F)F)nc(Cl)c2Cl)nc1C [13-502] | 3.50 |  |
| Cc1nc(Cn2nc(C(F)(F)F)cc2C(F)(F)F)ccc1NC(=O)c1c(Br)ccc(Cl)c1C(=O)N[C@@H](C)C[S+](C)[O-] (some centres unmarked) [11-14] | logP (acid) 2.68 |  |
| CSC[C@H](C)NC(=O)c1c(Cl)ccc(Br)c1C(=O)Nc1ccc(Cn2nc(C(F)(F)C(F)(F)F)nc2C(F)(F)F)cc1C [11-30] | logP (acid) 4.28 |  |

Same assay, conditions: reverse phase (C18) chromatography at pH2.3, 0.1% phosphoric acid aqueous solution / acetonitrile gradient

| SMILES | logP (acid) |
| --- | --- |
| CSC[C@H](C)NC(=O)c1c(Cl)cccc1C(=O)Nc1cc(F)c(Cn2nc(C(F)(F)F)cc2C(F)(F)F)nc1C [7-150] | logP (acid) 4.13 |

Same assay, conditions: reverse phase (C18) chromatography at pH2.3, 0.1% phosphoric acid aqueous solution / acetonitrile, linear gradient 10-95%

| SMILES | logP (acid) |
| --- | --- |
| CSC[C@H](C)NC(=O)c1c(Cl)cccc1C(=O)Nc1cccc(Cn2cc(C(F)(F)C(F)(F)F)c(C(F)(F)C(F)(F)F)n2)c1C [4-6] | logP (acid) 4.52 |
| CSC[C@H](C)NC(=O)c1c(Cl)cccc1C(=O)Nc1cccc(Cn2nc(C(F)(F)C(F)(F)F)nc2-c2ccc(Cl)cc2)c1C [4-9] | logP (acid) 4.32 |

Same assay, conditions: reverse phase (C18) chromatography at pH2.3, 0.1% phosphoric acid aqueous solution / acetonitrile, linear gradient 10-95% acetonitrile

| SMILES | logP (acid) |
| --- | --- |
| Cc1cc(Cn2nc(C(F)(F)F)nc2C(F)(F)F)c(F)cc1NC(=O)c1cccc(Cl)c1C(=O)N[C@@H](C)C[S+](C)[O-] (some centres unmarked) [7-8] | logP (acid) 2.63 |

Same assay, conditions: reverse phase (C18) chromatography column, pH 2.3; reverse phase (C18) chromatography, pH2.3, 0.1% phosphoric acid / acetonitrile gradient 10-95%; read-out: logP (acid)

| SMILES | chromatographic logP |
| --- | --- |
| Cc1nc(Cn2nc(C(F)(F)C(F)(F)F)cc2C(F)(F)C(F)(F)F)ccc1[N+](=O)[O-] [SYNTHESIS EXAMPLE 81-1] | 4.68 |

Same assay, conditions: reverse phase (C18) chromatography, pH 2.3

| logP (acid) | SMILES |
| --- | --- |
| logP (acid) 3.22 | Cc1cc(Cn2nnc(-c3ccc(C(F)(F)F)cc3)n2)ccc1NC(=O)c1cccc(Br)c1C(=O)N[C@@H](C)CS(C)(=O)=O [14-348] |
| logP (acid) 3.86 | Cc1cc(Cn2nc(C(F)(F)C(F)(F)F)nc2C(F)(F)F)ccc1NC(=O)c1cccc(Cl)c1C(=O)NC(C)CC1(C)OCCO1 (centres unmarked) [14-360] |
| logP (acid) 3.53 | CSC[C@H](C)NC(=O)c1c(SC)cccc1C(=O)Nc1ccc(Cn2nc(C(F)(F)C(F)(F)F)n(C(F)F)c2=O)cc1C [14-389] |
| logP (acid) 2.98 | CSC[C@H](C)NC(=O)c1c(C(=O)Nc2ccc(Cn3nc(C(F)(F)F)nc3C(F)(F)F)nc2C)cccc1S(C)(=O)=O [14-364] |
| logP (acid) 3.88 | CSC[C@H](C)NC(=O)c1c(C(=O)Nc2ccc(Cn3nc(C(F)(F)C(F)(F)F)nc3C(F)(F)F)cc2C)cccc1S(=O)(=O)N(C)C [14-384] |
| logP (acid) 3.92 | Cc1cc(Cn2nc(C(F)(F)C(F)(F)F)nc2C(F)(F)F)ccc1NC(=O)c1cccc(Br)c1C(=O)NC(C)CC1(C)OCCO1 (centres unmarked) [14-362] |
| logP (acid) 1.82 | Cc1cc(Cn2nc(C(F)(F)C(F)(F)F)n(N)c2=O)ccc1NC(=O)c1cccc(Cl)c1C(=O)N[C@@H](C)C[S+](C)[O-] (some centres unmarked) [14-422] |
| logP (acid) 3.95 | Cc1cc(Cn2nc(C(F)(F)C(F)(F)F)nc2C(F)(F)F)ccc1NC(=O)c1cccc(I)c1C(=O)NC(C)CC1(C)OCCCO1 (centres unmarked) [14-358] |
| logP (acid) 2.07 | Cc1nc(Cn2nc(C(F)(F)F)nc2C(F)(F)F)ccc1NC(=O)c1cccc(S(C)(=O)=O)c1C(=O)N[C@@H](C)C[S+](C)[O-] (some centres unmarked) [14-366] |
| logP (acid) 3.95 | Cc1cc(Cn2nc(C(F)(F)C(F)(F)F)nc2C(F)(F)F)ccc1NC(=O)c1cccc(I)c1C(=O)NC(C)CC1(C)OCCO1 (centres unmarked) [14-361] |

The remaining lines, values behind:

| SMILES | logP (acid) |
| --- | --- |
| Cc1nc(Cn2nc(C(F)(F)F)cc2C(F)(F)F)ccc1NC(=O)c1cccc(S(=O)(=O)N(C)C)c1C(=O)NC(C)C[S+](C)[O-] (mixture of isomers) [13-288] | logP (acid) 2.37 |
| CSC[C@H](C)NC(=O)c1cc(Cl)c(Cl)cc1C(=O)Nc1ccc(Cn2nc(C(F)(F)F)cc2C(F)(F)F)nc1C [13-238] | logP (acid) 3.74 |
| CSC[C@H](C)NC(=O)c1c(I)cccc1C(=O)Nc1ccc(Cn2nc(C(F)(F)F)cc2C(F)(F)C(F)(F)F)nc1C [13-239] | logP (acid) 4.27 |
| CSC[C@H](C)NC(=O)c1c(Cl)cccc1C(=O)Nc1ccc(Cn2cc(C(=O)NCC(F)(F)F)c(C(F)(F)F)n2)cc1C [13-210] | logP (acid) 3.05 |
| CSC[C@H](C)NC(=O)c1c(Cl)cccc1C(=O)Nc1ccc(Cn2cc(C(=O)NC(C)C(F)(F)F)c(C(F)(F)F)n2)cc1C (some centres unmarked) [13-208] | logP (acid) 3.25 |
| CSC[C@H](C)NC(=O)c1c(C(=O)Nc2ccc(Cn3cc(C(F)(F)C(F)(F)F)c(C(F)(F)C(F)(F)F)n3)nc2C)cccc1S(C)(=O)=O [13-290] | logP (acid) 3.80 |
| Cc1nc(Cn2nc(C(F)(F)F)cc2C(F)(F)F)ccc1NC(=O)c1c(Cl)cccc1C(=O)NC1=NN(c2ccccc2)C(=O)C1 [13-281] | logP (acid) 4.41 |
| CCC(CC#N)NC(=O)c1c(Cl)cccc1C(=O)Nc1ccc(Cn2nc(C(F)(F)F)cc2C(F)(F)F)cc1C (centres unmarked) [13-277] | logP (acid) 3.42 |
| Cc1nc(Cn2nc(C(F)(F)F)cc2C(F)(F)F)ccc1NC(=O)c1c(Cl)cccc1C(=O)NC1CCS(=O)(=O)C1 (centres unmarked) [13-276] | logP (acid) 3.28 |
| CSCC(C)NC(=O)c1c(SC)cccc1C(=O)Nc1ccc(C(O)c2cc(C(F)(F)C(F)(F)F)n[nH]2)cc1C (mixture of isomers) [13-340] | logP (acid) 2.77 |
| Cc1cc(Cn2nc(C(F)(F)F)cc2C(F)(F)F)ccc1NC(=O)c1cccc(S(=O)(=O)N(C)C)c1C(=O)N[C@@H](C)CS(C)(=O)=O [13-349] | logP (acid) 3.07 |
| CSC[C@H](C)NC(=O)c1c(Cl)cccc1C(=O)Nc1ccc(Cc2cc(C(F)(F)C(F)(F)F)n[nH]2)cc1C [13-230] | logP (acid) 3.29 |
| Cc1nc(Cn2nc(C(F)(F)F)cc2C(F)(F)F)ccc1NC(=O)c1cccc(S(=O)(=O)N(C)C)c1C(=O)N[C@@H](C)CS(C)(=O)=O [13-289] | logP (acid) 2.75 |

Same assay, conditions: reverse phase (C18) chromatography, pH2.3, 0.1% phosphoric acid aqueous solution / acetonitrile, linear gradient 10-95% acetonitrile

| SMILES | logP (acid) |
| --- | --- |
| CSC[C@H](C)NC(=O)c1c(C(=O)Nc2ccc(Cn3nc(C(F)(F)F)nc3C(F)(F)F)cc2C)ccc(C(F)(F)F)c1Cl [9-18] | logP (acid) 4.30 |
| Cc1cc(Cn2nc(C(F)(F)C(F)(F)F)nc2C(F)(F)F)ccc1NC(=O)c1ccc(F)c(Br)c1C(=O)N[C@@H](C)C[S+](C)[O-] (some centres unmarked) [9-13] | logP (acid) 2.96 |
| CSC[C@H](C)NC(=O)c1c(C(=O)Nc2ccc(Cn3nc(C(F)(F)F)cc3C(F)(F)F)cc2C)ccc(C(F)(F)F)c1Cl [9-14] | logP (acid) 4.62 |
